We go through two compounds from ChEMBL document CHEMBL1144216, “Suppression of cytokine production in lipopolysaccharide-stimulated mouse macrophages by novel cationic glucosamine derivative involves down-regulation of NF-kappaB and MAPK expressions” (2008).

Test [1] concerns RAW264.7. Nature of the test: Inhibition of LPS-stimulated IL1-beta production in mouse RAW264.7 cells treated 1 hr before LPS challenge after 24 hrs by ELISA. Format: functional, cell-based.
The subject of test [2] is RAW264.7. Nature of the test: Inhibition of LPS-stimulated PGE2 production in mouse RAW264.7 cells treated 1 hr before LPS challenge after 24 hrs by ELISA. Format: functional, cell-based. (In general: An ELISA detects its analyte on a solid surface through an enzyme-linked reagent.)
Test [3] relates to RAW264.7. Nature of the test: Inhibition of LPS-stimulated IL6 production in mouse RAW264.7 cells treated 1 hr before LPS challenge after 24 hrs by ELISA. Type of test: functional, cell-based.
For test [4], the system named is RAW264.7. Nature of the test: Inhibition of LPS-stimulated TNFalpha production in mouse RAW264.7 cells treated 1 hr before LPS challenge after 24 hrs by ELISA. Type of test: functional, cell-based.
Test [5] has as its system RAW264.7. Nature of the test: Inhibition of LPS-stimulated TNFalpha production in mouse RAW264.7 cells at 50 ug/ml treated 1 hr before LPS challenge after 24 hrs by ELISA. Format: functional.
Test [6] relates to RAW264.7. Nature of the test: Inhibition of LPS-stimulated p38MAPK expression in mouse RAW264.7 cells by Western blotting. Type of test: functional, cell-based. On the technique in general: In western blotting, separated proteins are transferred to a membrane and probed.
The test system of test [7] is RAW264.7. Nature of the test: Inhibition of LPS-stimulated TNFalpha production in mouse RAW264.7 cells at 60 ug/mL by Western blot analysis. Format: functional, cell-based.
In test [8] the test system is RAW264.7. Nature of the test: Inhibition of LPS-stimulated IL6 production in mouse RAW264.7 cells at 50 ug/ml treated 1 hr before LPS challenge after 24 hrs by ELISA. Type of test: functional, cell-based.
For test [9], the system named is RAW264.7. Nature of the test: Inhibition of LPS-stimulated PGE2 production in mouse RAW264.7 cells at 50 ug/ml treated 1 hr before LPS challenge after 24 hrs by ELISA. Format: functional.
For test [10], the system named is RAW264.7. Nature of the test: Inhibition of LPS-stimulated IL6 production in mouse RAW264.7 cells at 60 ug/mL by Western blot analysis. Type of test: functional, cell-based.
Test [11] has as its system RAW264.7. Nature of the test: Inhibition of LPS-stimulated IL1-beta production in mouse RAW264.7 cells at 60 ug/mL by Western blot analysis. Type of test: functional, cell-based.
For test [12], the system named is RAW264.7. Nature of the test: Inhibition of LPS-stimulated ERK expression in mouse RAW264.7 cells by Western blotting. Type of test: functional, cell-based.
Test [13] relates to RAW264.7. Nature of the test: Inhibition of LPS-stimulated JNK level in mouse RAW264.7 cells by Western blotting. Type of test: functional, cell-based.
Test [14] relates to RAW264.7. Nature of the test: Inhibition of LPS-induced NF-kappaB promoter activity in mouse RAW264.7 cells by luciferase reporter assay. Format: functional, cell-based.
Test [15] deals with RAW264.7. Nature of the test: Reduction of LPS-induced NF-kappaB translocation in mouse RAW264.7 cells assessed as NF-kappaB p65 protein expression level at 40 ug/mL by Western blotting. Format: functional, cell-based.
The test system of test [16] is RAW264.7. Nature of the test: Effect on level of NIK in mouse RAW264.7 cells by Western blotting. Format: functional, cell-based.
Test [17] relates to RAW264.7. Nature of the test: Reduction of LPS-induced NF-kappaB translocation in mouse RAW264.7 cells assessed as NF-kappaB p65 protein expression level at 60 ug/mL by Western blotting. Type of test: functional, cell-based.
For test [18], the system named is RAW264.7. Nature of the test: Increase in IkappaB protein expression in mouse RAW264.7 cells by Western blotting relative to control. Format: functional, cell-based.
The subject of test [19] is RAW264.7. Nature of the test: Inhibition of IKK protein expression in mouse RAW264.7 cells by Western blotting. Format: functional, cell-based.
Test [20] relates to RAW264.7. Nature of the test: Inhibition of LPS-stimulated IL1-beta production in mouse RAW264.7 cells assessed as IL1-beta level at 50 ug/ml treated 1 hr before LPS challenge after 24 hrs by ELISA. Format: functional.

Activity calls are given as the source filed them. The rule behind the calls is not given here.

In general, inhibition refers to the change of the read-out against control, counted positive when it falls.

In the case of `N[C@H]1C(O)O[C@H](CO)[C@@H](O)[C@@H]1O` (stereo not given in full), the Activity result in the test with RAW264.7 [1], in the test with RAW264.7 [2], with RAW264.7 [3] and in the test with RAW264.7 [4] was “Dose-dependent effect” throughout.
Consider `C[N+](C)(C)CC(O)CN[C@@H]1[C@@H](O)[C@H](O)[C@@H](CO)O[C@H]1O.[Cl-]` (stereo not given in full), for which the figures for the inhibition at 50 µg/mL in the test on RAW264.7 [5] and in the test with RAW264.7 [9] were 45% and 50%, respectively. Also, the Activity result was “Dose-dependent effect” with RAW264.7 [6], “Dose-dependent effect” with RAW264.7 [13], “Dose-dependent effect” in the test with RAW264.7 [14] and 100 pg/mL in the test with RAW264.7 [20]. Besides, the outcome in the test with RAW264.7 [7], in the test on RAW264.7 [8], in the test with RAW264.7 [10], with RAW264.7 [11], with RAW264.7 [15] and with RAW264.7 [17] was Active. In addition, the result in the test with RAW264.7 [18] and in the test with RAW264.7 [19] was Active. Moreover, the outcome with RAW264.7 [12] and in the test on RAW264.7 [16] was inactive.
